{
  "source": "patent US20240082409A1",
  "about": "“Modified peptide ligands for stable delivery of highly potent payloads to tumors: Method of making and using same” (priority 2020, published 2024)",
  "key": {"[1]": {"experiment": "Animal weight, hematology and normal organ histology in treated SCID mice", "assay_type": "in vivo", "details": "for effect on animal weight: single i.v. injection 0.5 μmol/kg, SCID mice bearing HCC1806", "from_the_text": "FIG. 4B depicts animal weight in female SCID mice bearing HCC1806 TNBC CDX during treatment with saline; OTS-P22 or MMAE at a single i.v. injection of 0.5 μmol/kg on day 0 (arrow). […] are presented as mean±standard error of 10 mice per group.\nFIG. 5A depict hematology parameters of saline- and OTS-P22 treated SCID mice bearing HCC1806 TNBC xenografts (n=10) as described in FIG. 4A and into in accordance with the preferred embodiment of the present invention;\nFIG. 5B depict representative hematoxylin-eosin staining slides of normal organs from saline- and OTS-P22 treated SCID mice bearing HCC1806 TNBC xenografts as described in FIG. 4A and into in accordance with the preferred embodiment of the present invention;"}, "[2]": {"test_system": "HCC1806 TNBC CDX", "experiment": "Tumor growth of HCC1806 xenografts in female SCID mice", "assay_type": "in vivo", "procedure": "FIG. 4A depicts tumor volume in female SCID mice bearing HCC1806 TNBC CDX during treatment with saline; OTS-P22 or MMAE at a single i.v. injection of 0.5 μmol/kg on day 0 (arrow). Tumor volume values in mm^3 are presented as mean±standard error of 10 mice per group. Statistical analysis was performed using ANOVA followed by Tukey's multiple comparison test. ***<0.001, **<0.01, *<0.05 were significant."}, "[3]": {"experiment": "In-vitro stability in human plasma (RP-HPLC/mass spectrometry)", "assay_type": "in vitro ADME", "procedure": "FIGS. 7A, 7B, 7C and 7D depicts the in-vitro stability of OTS-P23 in human plasma at 0, 2, 8 and 24 hours incubation times respectively in accordance with a preferred embodiment of the present invention. OTS-P23 is incubated at 100 μg/100 μl in 80% plasma from human or for 0, 2, 8 or 24 hours. Solutions are then centrifuged using Amicon centrifugal devices (cut-off 10 KDa) and 20 μl of the lower molecular weight fractions are analyzed by RP-HPLC/mass spectrometry. […] A minor peak (2.26%) was detected with a molecular weight of 2240.3 Dalton (metabolite).\nFIGS. 13A, 13B, 13C and 13D depicts the in-vitro stability of OTS-P28 in human plasma at 0, 2, 8 and 24 hours incubation times respectively in accordance with a preferred embodiment of the present invention. OTS-P23 is incubated at 100 μg/100 μl in 80% plasma from human or for 0, 2, 8 or 24 hours. Solutions are then centrifuged using Amicon centrifugal devices (cut-off 10 KDa) and 20 μl of the lower molecular weight fractions are analyzed by RP-HPLC/mass spectrometry. […] A minor peak (2.26%) was detected with a molecular weight of 2240.3 Dalton (metabolite)."}, "[4]": {"experiment": "In-vitro potency of LHRH-based drug conjugates (summary statement)", "details": "cell line not stated"}, "[5]": {"test_system": "caspase activity in HCC1806 cells", "details": "100 nM, 48 hours", "description": "At the end of the incubation, cells were washed three times, lyzed and proteins quantified using Bradford reagents. Apoptosis assay was performed using 100 μg proteins according to ApoTarget Caspase Colorimetric Protease Assay Sampler Kit instructions (Invitrogen, Carlsbad, CA)."}, "[6]": {"test_system": "normal 3T3 mouse fibroblasts", "details": "0.165-100 nM, 3 hours exposure, then 93 hours, MTS", "procedure": "(§1) FIG. 2A depicts the viability of HCC1806 and BT-549 TNBC cell lines as well as normal 3T3 mouse fibroblasts in presence of peptide drug conjugate OTS-P22 at increasing concentrations (Log 0.165-100 nM). Cells were plated at 10,000 cells/well on 96-well plates in RPMI or DMEM medium (pH 7.4) with 10% FBS or 10% BCS and after attachment they were washed and incubated with OTS-P22 in complete medium without antibiotics for 3 hours. After 3 hours, cells were washed and then incubated in complete medium without antibiotics for an additional 93 hours. At the end of the incubation period cells were washed and cell viability was measured using MTS assay according to the manufacturer's instructions (Promega, Madison, WI). Data shown are percentage mean value and standard error of triplicate measurements. Differences between mean values were evaluated by one-way ANOVA followed by Tukey's honestly significant difference procedure. **<0.01 were highly significant."}, "[7]": {"test_system": "HCC1806 TNBC cell line", "experiment": "MTS proliferation (viability) assay, HCC1806", "assay_type": "cell-based, human", "procedure": "as §1"}},
  "note": "“And” between values parts separate entries of the source, which are not always exact repeats. Equal entries are not always repeated. “Also recorded” adds a separate entry of the source. Numbered stars: 1 amine (or outer) side, 2 acyl side, 3 side chain; on linkers, the order of the positions; unused ones are H or OH. Bridge positions count the residues as written; N and C are the ends. Square brackets hold non-standard residues; d marks the D form. Peptide text beside a SMILES is read from it. I, II: the chains in the order shown. * marks the point of attachment. X1 = O=C([C@@H](CCCCn1nnc2c1-c1ccccc1N([*:3])Cc1ccccc1-2)N[*:1])[*:2]; Dolaproine = CO[C@@H]([C@@H]1CCCN1)[C@@H](C)C(=O)O; X3 = O=C(CCC(=O)[*:1])NCCOCCOCCOCCC(=O)[*:2]; Dil = CC[C@H](C)[C@H](NC)[C@@H](CC(=O)O)OC; PABC = O=C(OCc1ccc(N[*:1])cc1)[*:2]; X2 = C[C@@H](N*)[C@@H](O)c1ccccc1; d3Pal = N[C@H](Cc1cccnc1)C(=O)O; Cit = NC(=O)NCCC[C@H](N)C(=O)O; pGlu = O=C1CC[C@@H](C(=O)O)N1; NMeV = CN[C@H](C(=O)O)C(C)C",
  "data": [
    {"compound": "CC[C@H](C)[C@@H]([C@@H](CC(=O)N1CCC[C@H]1[C@H](OC)[C@@H](C)C(=O)N[C@H](C)[C@@H](O)c1ccccc1)OC)N(C)C(=O)[C@@H](NC(=O)[C@H](C(C)C)N(C)C(=O)OCc1ccc(NC(=O)[C@H](CCCNC(N)=O)NC(=O)[C@@H](NC(=O)CCOCCOCCOCCNC(=O)CCC(=O)N2Cc3ccccc3-c3nnn(CCCC[C@@H](NC(=O)[C@H](Cc4ccc(O)cc4)NC(=O)[C@H](CO)NC(=O)[C@@H](Cc4cccnc4)NC(=O)[C@H](Cc4c[nH]cn4)NC(=O)[C@@H]4CCC(=O)N4)C(=O)N[C@@H](CC(C)C)C(=O)N[C@@H](CCCNC(=N)N)C(=O)N4CCC[C@H]4C(=O)N[C@H](C)C(N)=O)c3-c3ccccc32)C(C)C)cc1)C(C)C", "note": "[OTS-P22, Glp-His-DPal-Ser-Tyr-DLys[dPEG3-Val-Cit-PABC-MMAE]-Leu-Arg-Pro-DAla-NH2] (I: [pGlu]H[d3Pal]SY[X1]LRP[dA]-NH2 / II: V[Cit][PABC][NMeV]V[Dil][Dolaproine]-X2; linker I:6-II:N via X3)", "values": [
      {"measurement": "effect on hematology", "setting": "[1]; SCID mice bearing HCC1806 xenografts", "result": "No signifcant effect"},
      {"measurement": "effect on normal tissue histology", "setting": "[1]; SCID mice bearing HCC1806 xenografts, hematoxylin-eosin", "result": "No signifcant effect"},
      {"measurement": "effect on animal weight", "setting": "[1]", "result": "No signifcant effect; also recorded: Neither treatment with OTS-P22 or MMAE affected animal weight"},
      {"measurement": "potency relative to AEZS-108 in term of in-vivo tumor growth inhibition of HCC1806 xenografts", "setting": "[2]; compared with first generation conjugate AEZS-108", "result": "at least 16 times"},
      {"measurement": "partial response", "setting": "[2]; single i.v. 0.5 μmol/kg, 21 days, 80.5% in 2/10 mice, 88.5% in 1/10 mice", "result": "80.5% and 88.5%"},
      {"measurement": "tumor growth inhibition", "setting": "[2]; single i.v. injection 0.5 μmol/kg (1.435 mg/kg), 21 days post-treatment, SCID mice", "result": 100, "unit": "%"},
      {"measurement": "mice showing complete response", "setting": "[2]; single i.v. injection 0.5 μmol/kg, 21 days post-treatment, 10 mice per group", "result": "7/10"},
      {"measurement": "minor peak (metabolite, 2240.3 Dalton)", "setting": "[3]; 80% human plasma, 8 hours incubation", "result": 2.26, "unit": "%"},
      {"measurement": "conjugate still intact", "setting": "[3]; 80% human plasma, 8 hours incubation, 100 μg/100 μl", "result": 97.74, "unit": "%"},
      {"measurement": "remaining at 8 h, 100 μg/100 μl", "setting": "[3]; 80% human plasma, 8 hours incubation, 100 μg/100 μl, read-out: conjugate still intact", "result": 97.7, "unit": "%"},
      {"measurement": "in-vitro potency (in words)", "setting": "[4]", "result": "higher potency at low nanomolar concentrations"},
      {"measurement": "increase of caspase activity as compared to saline-treated cells", "setting": "[5]", "result": 1.5, "unit": "fold"},
      {"measurement": "effect on viability of 3T3 normal fibroblasts", "setting": "[6]", "result": "no effect"}
    ]},
    {"compound": "Glp-His-Trp-DSer-Tyr-DLys[-dPEG5-Val-Cit-PABC-MMAE]-Leu-Arg-Pro-NHEt [OTS-P23b]", "values": [
      {"measurement": "in-vitro potency (in words)", "setting": "[4]", "result": "higher potency at low nanomolar concentrations"}
    ]},
    {"compound": "Glp-DHis-Trp-DSer-Tyr-DLys[Glut-Val-Cit-PABC-MMAE]-Leu-Arg-Pro-DAla-NH2 [OTS-P31]", "values": [
      {"measurement": "in-vitro potency (in words)", "setting": "[4]", "result": "higher potency at low nanomolar concentrations"}
    ]},
    {"compound": "Glp-His-DPal-Ser-Tyr-DCys[dPEG8-Val-Cit-PABC-MMAE]-Leu-Arg-Pro-DAla-NH2 [OTS-P28]", "values": [
      {"measurement": "stability in human plasma (in words)", "setting": "[3]; human plasma", "result": "highly stable"},
      {"measurement": "anti-proliferative activity in-vitro on HCC1806 TNBC cell line (in words)", "setting": "[7]", "result": "low nanomolar concentrations"},
      {"measurement": "in-vitro potency (in words)", "setting": "[4]", "result": "higher potency at low nanomolar concentrations"}
    ]},
    {"compound": "Glp-His-DPal-Ser-Tyr-DCys[Val-Cit-PABC-MMAE]-Leu-Arg-Pro-DAla-NH2 [OTS-P26]", "values": [
      {"measurement": "effect on viability of HCC1806 TNBC cells (in words)", "setting": "[7]; MTS proliferation assay", "result": "dose-dependent manner"},
      {"measurement": "in-vitro potency (in words)", "setting": "[4]", "result": "higher potency at low nanomolar concentrations"}
    ]},
    {"compound": "CC[C@H](C)[C@@H]([C@@H](CC(=O)N1CCC[C@H]1[C@H](OC)[C@@H](C)C(=O)N[C@H](C)[C@@H](O)c1ccccc1)OC)N(C)C(=O)[C@@H](NC(=O)[C@@H](NC)C(C)C)C(C)C", "note": "[MMAE, monomethyl auristatin E, reference compound] (H-[NMeV]V[Dil][Dolaproine]-X2)", "values": [
      {"measurement": "effect on animal weight", "setting": "[1]", "result": "Neither treatment with OTS-P22 or MMAE affected animal weight"},
      {"measurement": "effect on tumor growth (in words)", "setting": "[2]; single i.v. injection 0.5 μmol/kg, end of 21 days study", "result": "did not show any significant tumor growth inhibition; also recorded: no significant effect"}
    ]},
    {"compound": "Glp-His-DPal-Ser-Tyr-DLys[dPEG8-Val-Cit-PABC-MMAE]-Leu-Arg-Pro-DAla-NH2 [OTS-P23]", "values": [
      {"measurement": "in-vitro potency (in words)", "setting": "[4]", "result": "higher potency at low nanomolar concentrations"}
    ]}
  ]
}
